This is an account of results in patent US12545681B2, “Compound used as RET kinase inhibitor and application thereof” (TYK Medicines, Inc., priority 2020, dated 2026).

Holding throughout (format): cell-based
For test [1], the target named is T1, Ba/F3-KIF5B-RET-V804L (Homo sapiens, UniProt P07949, V804L).
T1 construct: KIF5B (fusion partner, N-terminal part of kinesin-1 heavy chain, P33176); host or cells: Ba/F3 (murine pro-B cells); the other entry of the earlier key: KIF5B (P33176, Kinesin-1 heavy chain)
T1 sequence (P07949 713-1063 V804L limits assumed): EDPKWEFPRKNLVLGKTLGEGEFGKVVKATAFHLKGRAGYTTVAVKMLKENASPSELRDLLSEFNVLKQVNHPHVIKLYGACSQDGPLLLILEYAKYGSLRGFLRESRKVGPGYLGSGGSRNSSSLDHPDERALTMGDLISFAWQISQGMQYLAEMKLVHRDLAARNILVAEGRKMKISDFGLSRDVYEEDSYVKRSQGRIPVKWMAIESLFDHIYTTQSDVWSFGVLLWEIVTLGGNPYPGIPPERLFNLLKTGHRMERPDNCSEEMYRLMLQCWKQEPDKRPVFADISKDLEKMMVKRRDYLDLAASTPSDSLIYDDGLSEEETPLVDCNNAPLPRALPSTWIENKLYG
The test can be described thus: Cell anti-proliferation (CellTiter-Glo), Ba/F3-KIF5B-RET-V804L cells. The conditions noted are these: cell viability, 72 h incubation. On the procedure: (§1) Ba/F3-KIF5B-RET, Ba/F3-KIF5B-RET-V804L and Ba/F3-KIF5B-RET-V804M cells were constructed by PreceDo Pharmaceuticals Co., Ltd.
(§2) Ba/F3-KIF5B-RET, Ba/F3-KIF5B-RET-V804L and Ba/F3-KIF5B-RET-V804M medium: RPMI-1640+10% FBS+1% P/S.
(§3) A 1000×solution of the compound was prepared with DMSO, the compound was diluted to 20 times to obtain the final concentration with a growth medium, and 2 μl 1000×cpd was added to 98 μl growth medium.
(§4) Cells were centrifuged and resuspended with growth medium and cell counting was performed using a cell counter. The cell suspension was diluted with growth medium to the desired concentration. 95 uL of the diluted cell suspension was taken out to a 96-well plate. 5 μL of 20×compound solution was added to the 96-well plate to a final DMSO concentration of 0.1% per well. The 96-well plate was incubated for 72 h at 37° C. with 5% CO2.
(§5) The 96-well plate was equilibrated to room temperature before the assay, 50 μl of CellTiter-Glo® Reagent was added to each well, the cells were fully lysed by shaking for 2 minutes on a shaker, incubated for 10 minutes at room temperature, and Paradigm was used to detect and record the […] readings.
(§6) Cell viability was analyzed using Graphpad 7.0 software according to the formula Cell viability (CV %)=(RLU compound−RLU blank)/(RLU control−RLU blank)*100%, and the corresponding IC50 data were calculated, in Table 1, the following names are used: <10.00 nM=A; 10.01-50.0 nM=B; >50 nM=C.
(In general: Cellular ATP, detected with luciferase, serves as a proxy for viable cell number.)

Test [2] deals with T2, Ba/F3-KIF5B-RET (Homo sapiens, UniProt P07949).
T2 construct: KIF5B (fusion partner, N-terminal part of kinesin-1 heavy chain, P33176); host or cells: Ba/F3 (murine pro-B cells); the other entry of the earlier key: KIF5B (P33176, Kinesin-1 heavy chain)
T2 sequence (P07949 713-1063 limits assumed): T1 sequence (P07949 713-1063 V804L limits assumed) with L92V
In words: Cell anti-proliferation (CellTiter-Glo), Ba/F3-KIF5B-RET cells. Particulars: for IC50: cell viability, 72 h incubation, CellTiter-Glo. The method, then:
as §1, §2, §3, §4, §5, §6

Test [3] deals with T3, Ba/F3-KIF5B-RET-V804M (Homo sapiens, UniProt P07949, V804M).
T3 construct: KIF5B (fusion partner, N-terminal part of kinesin-1 heavy chain, P33176); host or cells: Ba/F3 (murine pro-B cells); the other entry of the earlier key: KIF5B (P33176, Kinesin-1 heavy chain)
T3 sequence (P07949 713-1063 V804M limits assumed): T1 sequence (P07949 713-1063 V804L limits assumed) with L92M
The test can be described thus: Cell anti-proliferation (CellTiter-Glo), Ba/F3-KIF5B-RET-V804M cells. The conditions noted are these: cell viability, 72 h incubation. On the procedure:
as §1, §2, §3, §4, §5, §6

Where a chain is given by its changes, count along the chain named. Bounds are passed on as bounds.

For orientation: IC50 means the concentration needed to halve the response being measured. A low value points to greater potency. Take `CO[C@]1(C(=O)N[C@@H](C)c2cnc(-n3cc(F)cn3)s2)CC[C@H](c2nc(Nc3cc(C)[nH]n3)c3cnn(C4CC4)c3n2)CC1` [Compound C14]: the figures for the IC50 in test [1], in test [2] and in test [3] were below 10 nM, below 10 nM and 10 to 50 nM, respectively.

Consider `CCn1ncc2c(Nc3cc(C)[nH]n3)nc([C@H]3CC[C@](OC)(C(=O)N[C@@H](C)c4cnc(-n5cc(F)cn5)cn4)CC3)nc21` [Compound C5], for which the half-inhibitory concentration (IC50) in test [1], in test [2] and in test [3] was below 10 nM in each case.

For `CCCn1ncc2c(Nc3cc(C)[nH]n3)nc([C@H]3CC[C@](OC)(C(=O)N[C@@H](C)c4cnc(-n5cc(F)cn5)cn4)CC3)nc21` [Compound C22], the IC50 in test [1], in test [2] and in test [3] was 10 to 50 nM throughout.

For the molecule `CO[C@]1(C(=O)N[C@@H](C)c2cnc(-n3cc(F)cn3)cn2)CC[C@H](c2nc(Nc3cc(C)[nH]n3)c3cnn(CC(F)F)c3n2)CC1` [Compound C7], the IC50 in test [1], in test [2] and in test [3] was below 10 nM in each case.

With `CCn1ncc2c(Nc3cc(C)[nH]n3)nc([C@H]3CC[C@](OC)(C(=O)N[C@@H](C)c4cnc(-n5cc(F)cn5)s4)CC3)nc21` [Compound C13], the IC50 in test [1] is below 10 nM; in test [2] it was below 10 nM; in test [3], 10 to 50 nM.

Take `CO[C@]1(C(=O)N[C@@H](C)c2cnc(-n3cc(F)cn3)cn2)CC[C@H](c2nc(Nc3cc(C)[nH]n3)c3cnn(CC(F)(F)F)c3n2)CC1` [Compound C23]: the IC50 in test [1] is below 10 nM; in test [2] it was below 10 nM; in test [3] it was 10 to 50 nM. Also, the “RET inhibitory activity / inhibition effect (in words)” value in test [2] (summary of Table 1, especially Ba/F3-KIF5B-RET-V804M and Ba/F3-KIF5B-RET-V804L) is “superior to that of Control Example 3”.

On to `CO[C@]1(C(=O)N[C@@H](C)c2cnc(-n3cc(F)cn3)cn2)CC[C@H](c2nc(Nc3cc(C)[nH]n3)c3cnn(C4COC4)c3n2)CC1` [Compound C21], for which the 50% inhibitory concentration (IC50) in test [1], in test [2] and in test [3] was 10 to 50 nM throughout.

Turning to `[2H]C([2H])([2H])n1ncc2c(Nc3cc(C)[nH]n3)nc([C@H]3CC[C@](OC)(C(=O)N[C@@H](C)c4cnc(-n5cc(F)cn5)cn4)CC3)nc21` [Compound C9], the IC50 in test [1], in test [2] and in test [3] was below 10 nM throughout.

For the molecule `[2H]C([2H])([2H])n1ncc2c(Nc3cc(C)[nH]n3)nc([C@H]3CC[C@](OC)(C(=O)N[C@@H](C)c4ccc(-n5cc(F)cn5)nc4)CC3)nc21` [Compound C3], the IC50 in test [1], in test [2] and in test [3] was below 10 nM throughout.

Turning to `CO[C@]1(C(=O)N[C@@H](C)c2cnc(-n3cc(F)cn3)cn2)CC[C@H](c2nc(Nc3cc(C)[nH]n3)c3cnn(C4CC4)c3n2)CC1` [Compound C20], the IC50 in test [1], in test [2] and in test [3] was below 10 nM in each case.

For `CO[C@]1(C(=O)N[C@@H](C)c2ccc(-n3cc(F)cn3)nc2)CC[C@H](c2nc(Nc3cc(C)[nH]n3)c3cnn(CCF)c3n2)CC1` [Compound C18], the concentration for half-maximal inhibition (IC50) in test [1], in test [2] and in test [3] was below 10 nM each time.

For the molecule `CCn1ncc2c(Nc3cc(C)[nH]n3)nc([C@H]3CC[C@](OC)(C(=O)N[C@@H](C)c4csc(-n5cc(F)cn5)n4)CC3)nc21` [Compound C15], the IC50 in test [1] was below 10 nM; in test [2], below 10 nM; in test [3] it was 10 to 50 nM.

In the case of `CO[C@]1(C(=O)N[C@@H](C)c2ccc(-n3cc(F)cn3)nc2)CC[C@H](c2nc(Nc3cc(C)[nH]n3)c3cnn(CC(F)F)c3n2)CC1` [Compound C6], the IC50 in test [1], in test [2] and in test [3] was below 10 nM each time.

Turning to `CO[C@]1(C(=O)N[C@@H](C)c2csc(-n3cc(F)cn3)n2)CC[C@H](c2nc(Nc3cc(C)[nH]n3)c3cnn(C4CC4)c3n2)CC1` [Compound C16], the IC50 in test [1] is below 10 nM; in test [2], below 10 nM; in test [3], 10 to 50 nM.

For `CO[C@]1(C(=O)N[C@@H](C)c2cnc(-n3cc(F)cn3)cn2)CC[C@H](c2nc(Nc3cc(C)[nH]n3)c3cnn(C4CC(F)(F)C4)c3n2)CC1` [Compound C11], the IC50 in test [1], in test [2] and in test [3] was 10 to 50 nM in each case.

On to `CO[C@]1(C(=O)N[C@@H](C)c2cnc(-n3cc(F)cn3)cn2)CC[C@H](c2nc(Nc3cc(C)[nH]n3)c3cn(CC(F)(F)F)nc3n2)CC1` [Control Example 3, reference compound], for which the IC50 in test [1] is 10 to 50 nM; in test [2] it was 10 to 50 nM; in test [3], above 50 nM.

As for `CO[C@]1(C(=O)N[C@@H](C)c2ccc(-n3cc(F)cn3)nc2)CC[C@H](c2nc(Nc3cc(C)[nH]n3)c3cnn(COCC[Si](C)(C)C)c3n2)CC1` [Compound C2], the IC50 in test [1] is 10 to 50 nM; in test [2], above 50 nM; in test [3] it was above 50 nM.

Take `CCn1ncc2c(Nc3cc(C)[nH]n3)nc([C@H]3CC[C@](OC)(C(=O)N[C@@H](C)c4ccc(-n5cc(F)cn5)nc4)CC3)nc21` [Compound C4]: the IC50 in test [1], in test [2] and in test [3] was below 10 nM throughout.

As to `COCCn1ncc2c(Nc3cc(C)[nH]n3)nc([C@H]3CC[C@](OC)(C(=O)N[C@@H](C)c4cnc(-n5cc(F)cn5)cn4)CC3)nc21` [Compound C10], the IC50 in test [1] was below 10 nM; in test [2] it was below 10 nM; in test [3], 10 to 50 nM.

With `CO[C@]1(C(=O)N[C@@H](C)c2cnc(-n3cc(F)cn3)cn2)CC[C@H](c2nc(Nc3cc(C)[nH]n3)c3cnn(C)c3n2)CC1` [Compound C8], the half-maximal inhibitory concentration (IC50) in test [1], in test [2] and in test [3] was below 10 nM each time.

Take `CO[C@]1(C(=O)N[C@@H](C)c2cnc(-n3cc(F)cn3)cn2)CC[C@H](c2nc(Nc3cc(C)[nH]n3)c3cnn(CC4CC4)c3n2)CC1` [Compound C12]: the values for the concentration for half-maximal inhibition (IC50) in test [1], in test [2] and in test [3] were below 10 nM, below 10 nM and 10 to 50 nM, respectively.
